According to ChEMBL document CHEMBL1125532, “Synthesis and cholinergic properties of N-aryl-2-[[[5-[(dimethylamino)methyl]-2-furanyl]methyl]thio]ethylamino analogs of ranitidine” (J Med Chem, 1992):
Positions count from the first letter of the chain named. Activity calls are given as the source filed them. The rule behind the calls is not given here.

Legend:
Cholinesterase = Cholinesterase (Homo sapiens, UniProt P06276)
Description: In vitro inhibition of human butryl cholinesterase.

[1] = target: T1, Muscarinic acetylcholine receptor M1 (Mus musculus, UniProt P12657); test: biochemical
T1 sequence (P12657 whole entry): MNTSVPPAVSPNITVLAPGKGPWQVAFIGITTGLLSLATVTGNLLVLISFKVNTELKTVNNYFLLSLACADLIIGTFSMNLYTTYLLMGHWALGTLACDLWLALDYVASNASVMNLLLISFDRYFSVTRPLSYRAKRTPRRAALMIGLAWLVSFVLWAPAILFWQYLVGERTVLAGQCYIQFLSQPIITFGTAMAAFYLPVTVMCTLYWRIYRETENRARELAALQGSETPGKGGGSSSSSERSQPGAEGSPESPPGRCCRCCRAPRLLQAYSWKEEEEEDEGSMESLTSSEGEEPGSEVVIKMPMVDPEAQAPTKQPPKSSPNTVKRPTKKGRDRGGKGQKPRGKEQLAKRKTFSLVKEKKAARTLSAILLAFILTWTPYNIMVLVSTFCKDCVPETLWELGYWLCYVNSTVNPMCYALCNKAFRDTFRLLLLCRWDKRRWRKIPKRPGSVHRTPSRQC
Description: Inhibition of [3H]pirenzepine binding to mouse muscarinic acetylcholine receptor M1 from cerebral cortex

[2] = target: Cholinesterases; ACHE & BCHE (Homo sapiens) (UniProt P06276+P22303); test: Ratio of IC50(BChE-I) to IC50(AChE-I); type: protein assay
Sequence of Cholinesterases; ACHE & BCHE (Homo sapiens) (P06276 whole entry, looked up): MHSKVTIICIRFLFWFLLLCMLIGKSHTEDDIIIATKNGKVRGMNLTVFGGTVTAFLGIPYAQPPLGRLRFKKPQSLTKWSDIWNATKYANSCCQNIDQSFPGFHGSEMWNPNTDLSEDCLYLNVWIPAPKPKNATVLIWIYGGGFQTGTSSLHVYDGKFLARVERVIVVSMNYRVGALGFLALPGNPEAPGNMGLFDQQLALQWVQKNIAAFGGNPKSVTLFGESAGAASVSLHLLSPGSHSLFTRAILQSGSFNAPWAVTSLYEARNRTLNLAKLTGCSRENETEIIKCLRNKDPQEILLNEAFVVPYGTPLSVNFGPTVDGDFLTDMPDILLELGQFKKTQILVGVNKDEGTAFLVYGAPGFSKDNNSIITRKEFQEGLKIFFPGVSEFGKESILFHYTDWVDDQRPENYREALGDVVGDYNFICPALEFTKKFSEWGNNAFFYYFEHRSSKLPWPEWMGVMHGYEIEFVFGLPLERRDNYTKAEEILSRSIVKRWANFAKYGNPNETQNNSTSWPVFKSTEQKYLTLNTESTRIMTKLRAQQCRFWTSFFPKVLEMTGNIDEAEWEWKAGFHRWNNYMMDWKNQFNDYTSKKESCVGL
Sequence of Cholinesterases; ACHE & BCHE (Homo sapiens) (P22303 whole entry, looked up): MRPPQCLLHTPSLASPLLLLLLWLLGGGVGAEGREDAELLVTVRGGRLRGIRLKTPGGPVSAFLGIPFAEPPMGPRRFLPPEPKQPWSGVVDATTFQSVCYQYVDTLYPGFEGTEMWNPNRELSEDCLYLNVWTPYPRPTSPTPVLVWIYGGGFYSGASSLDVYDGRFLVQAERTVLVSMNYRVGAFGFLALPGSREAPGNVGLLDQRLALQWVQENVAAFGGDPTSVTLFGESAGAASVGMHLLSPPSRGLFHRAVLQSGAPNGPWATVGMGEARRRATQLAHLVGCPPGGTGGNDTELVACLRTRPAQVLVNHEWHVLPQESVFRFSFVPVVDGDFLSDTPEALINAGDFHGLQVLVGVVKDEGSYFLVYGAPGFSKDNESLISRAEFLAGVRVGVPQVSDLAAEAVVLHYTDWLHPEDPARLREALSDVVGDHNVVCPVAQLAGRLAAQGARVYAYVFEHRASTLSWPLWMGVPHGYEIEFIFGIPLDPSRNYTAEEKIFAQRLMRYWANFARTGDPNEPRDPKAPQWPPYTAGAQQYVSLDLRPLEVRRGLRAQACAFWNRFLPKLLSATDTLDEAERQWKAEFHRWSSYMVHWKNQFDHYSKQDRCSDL

Rattus norvegicus [3] = species: Rattus norvegicus
Rattus norvegicus [4] = species: Rattus norvegicus; test: Ratio of IC50 (muscarinic acetylcholine receptor M2) to IC50 (muscarinic acetylcholine receptor M1)
[5] = target: T2, Muscarinic acetylcholine receptor M2 (Rattus norvegicus, UniProt P10980)
T2 sequence (P10980 whole entry): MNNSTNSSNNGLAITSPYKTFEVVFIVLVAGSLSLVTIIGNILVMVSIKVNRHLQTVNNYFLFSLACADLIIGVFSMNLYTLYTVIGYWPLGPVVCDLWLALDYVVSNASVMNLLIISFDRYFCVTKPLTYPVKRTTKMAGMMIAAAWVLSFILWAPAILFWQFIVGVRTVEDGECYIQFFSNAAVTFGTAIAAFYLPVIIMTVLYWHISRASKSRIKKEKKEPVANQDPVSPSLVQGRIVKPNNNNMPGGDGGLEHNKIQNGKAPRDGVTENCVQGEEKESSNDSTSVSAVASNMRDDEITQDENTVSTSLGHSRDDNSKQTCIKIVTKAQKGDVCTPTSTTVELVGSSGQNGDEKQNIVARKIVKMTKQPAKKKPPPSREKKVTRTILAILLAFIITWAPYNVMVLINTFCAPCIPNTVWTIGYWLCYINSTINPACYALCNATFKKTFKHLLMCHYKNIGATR
Description: Inhibition of [3H]N-methylscopolamine to rat muscarinic acetylcholine receptor M2 from heart tissue

Acetylcholinesterase [6] = target: T3, Acetylcholinesterase (Homo sapiens, UniProt P22303)
T3 sequence (P22303 whole entry): as the sequence (P22303 whole entry, looked up) above
Description: In vitro inhibition of human acetylcholinesterase.

Rattus norvegicus [7] = species: Rattus norvegicus; test: Concentration required to potentiate the contraction of isolated rat ileum produced by 1 x 10 e -7 M Ach by 20 %; inactive; type: functional
[8] = target: T1, Muscarinic acetylcholine receptor M1; test: biochemical; remark: listed apart in the source
Description: Binding affinity against mouse Muscarinic acetylcholine receptor M1 using cerebral cortex and [3H]pirenzepine

Acetylcholinesterase [9] = target: T3, Acetylcholinesterase; test: In vitro acetyl cholinesterase (AChE-I) inhibitory activity to determine its ability to reverse the cholinergic deficit characteristic of AD
[10] = target: T4, Muscarinic acetylcholine receptor M2 (Mus musculus, UniProt Q9ERZ4); test: Ability to displace [3H]oxotremorine ([3H]OXO-M) from mouse cerebral cortex; type: tissue-based
T4 sequence (Q9ERZ4 whole entry): T2 sequence (P10980 whole entry) with V270G, R316K, K321R, A331T, V336A

[11] = target: T4, Muscarinic acetylcholine receptor M2; test: Ability to displace [3H]methylscopolamine ([3H]NMS) from mouse cerebral cortex; type: tissue-based
[12] = target: T4, Muscarinic acetylcholine receptor M2; test: biochemical
[13] = target: T4, Muscarinic acetylcholine receptor M2; test: biochemical; remark: listed apart in the source
Mus musculus [14] = test: Effect on brain acetylcholine concentration in mice after intraperitoneal administration of 40% lethal dose (68 mg/kg); type: functional
[15] = target: T1, Muscarinic acetylcholine receptor M1; test: biochemical; remark: listed apart in the source
Description: Binding affinity against mouse muscarinic acetylcholine receptor M1 using cerebral cortex and [3H]pirenzepine

Mus musculus [16] = test: Effect on brain acetylcholine concentration in mice after intraperitoneal administration of 60% lethal dose (102 mg/kg); type: functional
Mus musculus [17] = test: Effect on brain acetylcholine concentration in mice after intraperitoneal administration of 80% lethal dose (140 mg/kg); type: functional
[18] = target: T2, Muscarinic acetylcholine receptor M2; test: Binding affinity against rat muscarinic acetylcholine receptor M2 using heart tissue and [3H]N-methylscopolamine
Mus musculus [19] = test: Effect on brain acetylcholine concentration in mice after intraperitoneal administration of 80% lethal dose (80 mg/kg)(***: p <= 0.001); type: functional
Mus musculus [20] = test: Effect on brain acetylcholine concentration in mice after intraperitoneal administration of 60% lethal dose (66 mg/kg); type: functional
Mus musculus [21] = test: Effect on brain acetylcholine concentration in mice after intraperitoneal administration of 80% lethal dose (170 mg/kg); type: functional
Mus musculus [22] = test: Effect on brain acetylcholine concentration in mice after intraperitoneal administration of 40% lethal dose (68 mg/kg; type: functional

Sequence of Cholinesterase (P06276 whole entry): as the sequence (P06276 whole entry, looked up) above

SMILES | IC50 (Cholinesterase) | IC50 [1] | Ratio [2] | Ileal activity (Rattus norvegicus [3]) | Ratio (Rattus norvegicus [4]) | IC50 [5] | IC50 (Acetylcholinesterase [6]) | other results
CN(C)Cc1ccc(CSCCNc2cc(NCCCN3CCOCC3)c([N+](=O)[O-])cc2[N+](=O)[O-])o1 | 4.7 µM | 0.53 µM | 13 | <0.1 µM | 0.57 | 0.3 µM | 0.37 µM | 
CN(C)Cc1ccc(CSCCNc2cc(Nc3ccccc3C#N)c([N+](=O)[O-])cc2[N+](=O)[O-])o1 | 1.8 µM | 3.3 µM | 2.8 |  | 1.1 | 3.7 µM | 0.63 µM | Ileal activity (Rattus norvegicus [7]): inactive
CN(C)Cc1ccc(CSCCNc2cc(NCc3ccccc3)c([N+](=O)[O-])cc2[N+](=O)[O-])o1 |  | 2 µM |  |  | 1.7 | 3.3 µM |  | Ileal activity (Rattus norvegicus [7]): inactive
CN(C)Cc1ccc(CSCCNc2ccc(F)cc2[N+](=O)[O-])o1 | 3.3 µM | 4 µM | 5.1 |  | 0.6 | 2.4 µM | 0.65 µM | Ileal activity (Rattus norvegicus [7]): inactive
CCCCCNc1cc(NCCSCc2ccc(CN(C)C)o2)c([N+](=O)[O-])cc1[N+](=O)[O-] |  |  |  |  |  |  | 1.2 µM | 
CN(C)Cc1ccc(CSCCNc2nnccc2[N+](=O)[O-])o1 |  |  |  | <0.1 µM |  |  |  | IC50 [8]: 0.97 µM; IC50 (Acetylcholinesterase [9]): 0.47 µM
CNC(=O)Oc1ccc2c(c1)[C@]1(C)CCN(C)[C@@H]1N2C [PHYSOSTIGMINE] |  |  |  | <0.005 µM |  | 160 µM |  | 
CN(C)Cc1ccc(CSCCNc2cccc(F)c2C#N)o1 |  |  |  |  |  |  |  | IC50 (Acetylcholinesterase [9]): 2.1 µM
C[N+](C)(C)CCOC(N)=O [CARBACHOL] |  |  |  |  |  |  |  | Ki [10]: 0.008 µM; Ki [11]: 66 µM
O=C1CCCN1CC#CCN1CCCC1 [OXOTREMORINE] |  |  |  |  |  |  |  | Ki [12]: 0.0017 µM; Ki [13]: 1.5 µM
CN(C)Cc1ccc(CSCCNc2cc(NCc3ccccn3)c([N+](=O)[O-])cc2[N+](=O)[O-])o1 | 5.2 µM | 1.5 µM | 4.1 | <1 µM | 1.6 | 2.4 µM | 1.3 µM | 
CN(C)Cc1ccc(CSCCNc2ccc([N+](=O)[O-])cc2[N+](=O)[O-])o1 | 1.8 µM |  | 9.2 | <0.02 µM | 4.1 | 5.7 µM | 0.2 µM | % of control (Mus musculus [14]): 110.8%; IC50 [15]: 1.4 µM; % of control (Mus musculus [16]): 120.4%; Ki [12]: 0.87 µM; % of control (Mus musculus [17]): 128.4%; Ki [13]: 12 µM
CNc1cc(NCCSCc2ccc(CN(C)C)o2)c([N+](=O)[O-])cc1[N+](=O)[O-] | 3.3 µM | 0.43 µM | 21 |  | 7.2 |  | 0.16 µM | Ileal activity (Rattus norvegicus [7]): inactive; IC50 [18]: 3.1 µM
CN(C)Cc1ccc(CSCCNc2cc(Nc3ccc(F)cc3)c([N+](=O)[O-])cc2[N+](=O)[O-])o1 | 1.1 µM | 2.1 µM | 1.6 | <0.01 µM | 2.1 | 4.4 µM | 0.68 µM | 
CN(C)Cc1ccc(CSCCNc2cc(NCc3cccnc3)c([N+](=O)[O-])cc2[N+](=O)[O-])o1 | 6.1 µM | 0.38 µM | 19 |  | 1.1 | 0.4 µM | 0.31 µM | Ileal activity (Rattus norvegicus [7]): inactive
CN(C)Cc1ccc(CSCCNc2cc(Oc3ccc([N+](=O)[O-])cc3)c([N+](=O)[O-])cc2[N+](=O)[O-])o1 | 1.1 µM |  |  |  |  |  | 0.27 µM | 
CN(C)Cc1ccc(CSCCNc2cc(Nc3ncccc3[N+](=O)[O-])c([N+](=O)[O-])cc2[N+](=O)[O-])o1 | 18 µM |  |  |  |  |  | 0.65 µM | 
CN(C)Cc1ccc(CSCCNc2cc(N)c([N+](=O)[O-])cc2[N+](=O)[O-])o1 | 2.4 µM | 3.8 µM | 28 | <0.1 µM | 1.8 |  | 0.083 µM | IC50 [18]: 6.8 µM; Ki [12]: 0.46 µM; Ki [13]: 9.5 µM; % of control (Mus musculus [19]): 153.2%; % of control (Mus musculus [20]): 126.8%
CN(C)CCNc1cc(NCCSCc2ccc(CN(C)C)o2)c([N+](=O)[O-])cc1[N+](=O)[O-] | 1.4 µM | 0.67 µM | 2.8 | <0.01 µM | 0.57 | 0.38 µM | 0.52 µM | 
CN(C)Cc1ccc(CSCCNc2cc(Nc3ccccc3)c([N+](=O)[O-])cc2[N+](=O)[O-])o1 | 1.6 µM | 6.4 µM | 2.5 |  | 1 | 6.4 µM | 0.64 µM | Ileal activity (Rattus norvegicus [7]): inactive
CN(C)Cc1ccc(CSCCNc2cc(NN)c([N+](=O)[O-])cc2[N+](=O)[O-])o1 | 5.1 µM | 3.8 µM | 67 | <0.1 µM | 1.2 | 4.7 µM | 0.076 µM | % of control (Mus musculus [16]): 128.8%; % of control (Mus musculus [21]): 126.8%; Ki [12]: 1.1 µM; Ki [13]: 12 µM; % of control (Mus musculus [22]): 110%
CC(C)=NNc1cc(NCCSCc2ccc(CN(C)C)o2)c([N+](=O)[O-])cc1[N+](=O)[O-] | 8.4 µM | 3.1 µM | 19 | <0.1 µM | 1.1 | 3.5 µM | 0.44 µM | 
CN(C)Cc1ccc(CSCCNc2cc(F)c([N+](=O)[O-])cc2[N+](=O)[O-])o1 | 3.8 µM | 1.8 µM | 33 | <0.01 µM | 3.9 | 7 µM | 0.12 µM | 
CCCNc1cc(NCCSCc2ccc(CN(C)C)o2)c([N+](=O)[O-])cc1[N+](=O)[O-] | 3.8 µM | 3.2 µM | 15 | <1 µM | 1.1 |  | 0.26 µM | IC50 [18]: 3.5 µM
